Experimental data reported in ChEMBL document CHEMBL1158299, “Effects on cultured neonatal mouse calvaria of the flavonoids isolated from Boerhaavia repens” (1996).
Activity calls are given as the source filed them. The calls are words filed in the database; no cut-off is given here.

How the values were obtained:
Conditions in all cases: Bone element
Bone [1] = assay: Inhibition of PTH-induced bone resorption in mouse parietal bone culture assessed as 45Ca2 release into culture medium at 200 uM after 4 to 6 days by liquid scintillation counting; format: functional
Bone [2] = assay: Inhibition of bone resorption in mouse parietal bone culture assessed as 45Ca2 release into culture medium at 200 uM after 4 to 6 days by liquid scintillation counting; format: functional
Bone [3] = assay: Inhibition of bone resorption in mouse parietal bone culture assessed as 45Ca2 release into culture medium at 200 uM after 0 to 3 days by liquid scintillation counting; format: functional
Bone [4] = assay: Inhibition of PTH-induced bone resorption in mouse parietal bone culture assessed as 45Ca2 release into culture medium at 200 uM by liquid scintillation counting; format: functional, tissue-based

| SMILES | inhibition at 200 µM (Bone [1]) [%] | inhibition at 200 µM (Bone [2]) [%] | inhibition at 200 µM (Bone [3]) [%] | Activity (Bone [4]) |
| --- | --- | --- | --- | --- |
| COc1cc2oc(-c3ccc(O)cc3)c(O[C@@H]3O[C@H](CO)[C@H](O)[C@H](O)[C@H]3O)c(=O)c2c(O)c1OC | 55.3 | 23.1 | 20.6 |  |
| COc1cc2oc(-c3ccc(O)cc3)c(O[C@@H]3O[C@H](CO)[C@@H](O)[C@H](O)[C@H]3O[C@@H]3O[C@H](CO)[C@H](O)[C@H](O)[C@H]3O)c(=O)c2c(O)c1OC | 60.3 | 38 | 29.1 |  |
| COc1c(O)cc2oc(-c3ccc(O)cc3)c(O[C@@H]3O[C@H](CO[C@@H]4O[C@@H](C)[C@H](O)[C@@H](O)[C@H]4O)[C@H](O)[C@H](O)[C@H]3O)c(=O)c2c1O |  |  |  | inactive |
